Results reported in PubChem BioAssay (NCI).
Where “and” joins values, the source holds several entries; their conditions need not be identical. Equal values may be shown once.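 All cell lines were grown in 96-well plates and treated with compound for 48 hours. GI50 is the concentration that inhibits growth by half. Definition used: TGI = concentration required for complete inhibition of growth.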

How the values were obtained:
Test in all cases: DTP human tumour cell line panel, 48 h
SNB-78 CNS = test system: SNB-78 CNS
DLD-1 colon = test system: DLD-1 colon
XF 498 CNS = test system: XF 498 CNS
RXF-631 renal = test system: RXF-631 renal
DMS 273 small cell lung = test system: DMS 273 small cell lung
M19-MEL melanoma = test system: M19-MEL melanoma
KM20L2 colon = test system: KM20L2 colon
HOP-18 NSCLC = test system: HOP-18 NSCLC
SN12K1 renal = test system: SN12K1 renal
DMS 114 small cell lung = test system: DMS 114 small cell lung

Row | Compound | TGI (SNB-78 CNS) [µM] | TGI (DLD-1 colon) [µM] | TGI (XF 498 CNS) [µM] | TGI (RXF-631 renal) [µM] | TGI (DMS 273 small cell lung) [µM] | TGI (M19-MEL melanoma) | TGI (KM20L2 colon) [µM] | GI50 (HOP-18 NSCLC) | TGI (HOP-18 NSCLC) [µM] | TGI (SN12K1 renal) [µM] | GI50 (DMS 114 small cell lung) | TGI (DMS 114 small cell lung) [µM] | GI50 (M19-MEL melanoma) [µM] | GI50 (KM20L2 colon) [µM] | GI50 (SNB-78 CNS) [µM] | GI50 (DLD-1 colon) [µM] | GI50 (XF 498 CNS) [µM] | GI50 (RXF-631 renal) [µM] | GI50 (DMS 273 small cell lung) [µM]
1 | Cc1cc(C)c(S(=O)(=O)ONC(=O)OC(C)(C)C)c(C)c1 | > 100 | > 100 | > 100 | > 100 | > 100 | > 100 µM |  |  |  |  |  |  |  |  |  |  |  |  | 
2 | Nc1nc(N)c2nc(CNc3ccc(C(=O)NC(CCCNC(=O)c4ccccc4C(=O)O)C(=O)O)cc3)cnc2n1 (stereo unspecified) | > 100 | > 100 | > 100 |  | > 100 | > 100 µM | > 100 | 24.8 µM and 98 µM | > 100 | > 100 | < 0.01 µM and 0.000327 µM | > 100 | 0.122 |  |  |  |  |  | 
3 | CCC[CH2][Sn]([CH2]CCC)([O]C(=O)C1CCC(=O)N1)[O]C(=O)C1CCC(=O)N1 (stereo unspecified) | 0.759 | 1.52 | 0.376 | 0.297 | 1.16 | 0.824 µM | 1.69 |  |  |  | 0.168 µM | 0.367 | 0.244 | 0.446 | 0.26 | 0.353 | 0.217 | 0.159 | 0.336
4 | c1ccc(COCC2OC3c4ccccc4COC3C2OCc2ccccc2)cc1 (stereo unspecified) | > 100 | > 100 |  | > 100 | > 100 | > 100 µM | > 100 |  | > 100 |  |  | > 100 |  |  |  |  |  |  | 
5 | COC(OC)[C@@H](C)[C@H](O)[C@](C)(O)C1OC(C)(C)OC(C(C)C=C(C)C)C1C (stereo partly specified) | > 100 | > 100 | > 100 |  | > 100 | > 100 µM | > 100 |  | > 100 |  |  | > 100 |  |  |  |  |  |  | 
6 | CC(=O)[O-].O=C([CH-]C(=O)c1ccccc1)c1ccccc1.O=C([CH-]C(=O)c1ccccc1)c1ccccc1.[Y+3] |  |  |  |  |  |  | 26.3 |  |  |  |  |  |  | 6.51 |  |  |  |  | 
7 | OC(c1ccccn1)C1CNc2ccccc21 (stereo unspecified) | > 100 | > 100 | > 100 |  | > 100 | > 100 µM | > 100 |  |  |  |  | > 100 |  |  |  |  |  |  | 
8 | Cc1ccc(C)c(NC(=O)CCc2nc(=S)[nH][nH]2)c1 | > 100 | > 100 | > 100 | > 100 | > 100 | > 100 µM | > 100 |  | > 100 |  |  | > 100 |  |  |  |  |  |  | 
9 | COc1cc(-c2cc(=O)c3cc(C)c(C)c(C(=O)O)c3o2)cc(OC)c1OC | > 100 | > 100 | > 100 | > 100 | > 100 | > 100 µM | > 100 |  |  |  |  | > 100 |  |  |  |  |  |  | 
10 | CCCCCCCCCCCCN(O)C(=O)c1ccccc1 |  | > 100 | > 100 |  |  | > 100 µM | > 100 |  | > 100 |  |  |  |  |  |  |  |  |  | 
11 | O=C1C2c3[nH]c4ccccc4c3[C@@H]3CCCCC3C2C(=O)N1c1ccccc1 (stereo partly specified) | 72 | 92.4 |  | 34.2 | 35.3 | 34.8 µM |  |  |  |  |  | 58.4 |  |  |  |  |  |  | 
12 | O=C(NCCCCCCCCNC(=O)c1cccc2ccccc12)c1cccc2ccccc12 | 48.3 | > 100 | 20.9 | > 82 | > 100 | > 100 µM | > 100 |  | > 81.4 |  |  | > 100 |  |  |  |  |  |  | 
13 | Cc1ccc2[nH]c3c(ncc4[nH]c5ccccc5c43)c2c1 | 32.6 | 31 | 35.8 |  |  |  | 31.8 |  | 28.1 |  |  | 31.3 |  |  |  |  |  |  | 
14 | CCC(C(=O)[O-])C(=O)[O-].CCC(C(=O)[O-])C(=O)[O-].N.N.NCCCCCCN.[Pt+4].[Pt+4] | 29 | 13.9 |  |  | 16.4 |  | 29 | 4.92 µM | 11.5 |  |  |  |  | 15 | 10.7 | 3.79 |  |  | 8.32
15 | O=C1/C(=C/c2ccccc2)CN(C(=O)OCc2ccccc2)C/C1=C\c1ccccc1 | 25.4 | 14.2 | > 31.6 | > 31.6 | 14.3 | 7 µM and 13.6 µM | 18.9 |  |  |  | 4.26 µM | 21 | 2.01 |  |  | 4.14 |  |  | 2.62
16 | CC1=C(c2cc(C(=O)Nc3cccc(C(F)(F)F)c3)ncn2)Sc2ccccc2N1 |  | > 100 | > 100 |  | > 100 | > 100 µM | > 100 |  | > 100 |  |  | > 100 |  |  |  |  |  |  | 
17 | O=C(NNC(=O)c1cc(/C=C/c2cccc([N+](=O)[O-])c2)[nH]c(=S)n1)Nc1ccc(Cl)cc1 | > 100 | 47.8 | 81.4 |  | > 100 | > 100 µM | > 100 |  | > 100 |  |  | 97.4 |  |  |  |  |  |  | 
18 | COC12CC(=O)C(C(C)=O)=C(O)C1(C)c1c(OC(C)=O)c(C)c(O)c(C(C)=O)c1O2 (stereo unspecified) | > 100 |  | 70.7 | > 100 |  | > 100 µM | > 100 |  | 51.9 |  |  | > 100 |  |  |  |  |  |  | 
19 | O=C(CC(=O)C1CCOC1=O)C(=O)Nc1ccc(Cl)cc1Cl (stereo unspecified) | > 100 | > 100 | > 100 |  | > 100 | > 100 µM | > 100 |  |  |  |  | > 100 |  |  |  |  |  |  | 
20 | O=C([O-])c1ccc(C(=O)[O-])cc1.O=C([O-])c1ccc(C(=O)[O-])cc1.[Mo+2].[Mo+2] | > 100 | > 100 | > 100 | > 100 | > 100 | > 100 µM | > 100 | > 100 µM | > 100 |  |  |  | > 100 | > 100 | > 100 | > 100 | > 100 | > 100 | > 100
21 | N#CC1(C=O)c2ccccc2C=CN1C(=O)c1ccccc1 (stereo unspecified) | > 100 |  | 69.6 | > 100 | > 100 | > 100 µM | > 100 |  | > 100 |  |  | 49 |  |  |  |  |  |  | 
22 | CCOC(=O)NC(=O)c1cn(CCN2CCN(C(=O)CCCCCCCCCCNc3ncnc4nc[nH]c34)CC2)c(=O)[nH]c1=O | > 100 | > 100 |  |  | > 100 | > 100 µM | > 100 |  | > 100 |  |  |  |  |  |  |  |  |  | 
23 | CN(C)c1n/c(=N/c2ncn[nH]2)ss1 | > 100 | > 100 | > 100 |  | > 100 | > 100 µM | > 100 |  | > 100 |  |  | > 100 |  |  |  |  |  |  | 
